The nature of data set [1]: in vitro. The following applies: human, microsomes.
Data set [2] in a line: in vitro. The note with it: rat, microsomes.
Data set [3] is described as follows: in vitro. The following applies: mouse, microsomes.
In a further data set the target is aldehyde oxidase (Homo sapiens, UniProt Q06278). The note with it: for % of parent compd remaining after 45 min: human, cytosol, 0.75 h, 1 µM.
A further data set deals with Caco-2. The following applies: human.

aldehyde oxidase, sequence (Q06278 whole entry): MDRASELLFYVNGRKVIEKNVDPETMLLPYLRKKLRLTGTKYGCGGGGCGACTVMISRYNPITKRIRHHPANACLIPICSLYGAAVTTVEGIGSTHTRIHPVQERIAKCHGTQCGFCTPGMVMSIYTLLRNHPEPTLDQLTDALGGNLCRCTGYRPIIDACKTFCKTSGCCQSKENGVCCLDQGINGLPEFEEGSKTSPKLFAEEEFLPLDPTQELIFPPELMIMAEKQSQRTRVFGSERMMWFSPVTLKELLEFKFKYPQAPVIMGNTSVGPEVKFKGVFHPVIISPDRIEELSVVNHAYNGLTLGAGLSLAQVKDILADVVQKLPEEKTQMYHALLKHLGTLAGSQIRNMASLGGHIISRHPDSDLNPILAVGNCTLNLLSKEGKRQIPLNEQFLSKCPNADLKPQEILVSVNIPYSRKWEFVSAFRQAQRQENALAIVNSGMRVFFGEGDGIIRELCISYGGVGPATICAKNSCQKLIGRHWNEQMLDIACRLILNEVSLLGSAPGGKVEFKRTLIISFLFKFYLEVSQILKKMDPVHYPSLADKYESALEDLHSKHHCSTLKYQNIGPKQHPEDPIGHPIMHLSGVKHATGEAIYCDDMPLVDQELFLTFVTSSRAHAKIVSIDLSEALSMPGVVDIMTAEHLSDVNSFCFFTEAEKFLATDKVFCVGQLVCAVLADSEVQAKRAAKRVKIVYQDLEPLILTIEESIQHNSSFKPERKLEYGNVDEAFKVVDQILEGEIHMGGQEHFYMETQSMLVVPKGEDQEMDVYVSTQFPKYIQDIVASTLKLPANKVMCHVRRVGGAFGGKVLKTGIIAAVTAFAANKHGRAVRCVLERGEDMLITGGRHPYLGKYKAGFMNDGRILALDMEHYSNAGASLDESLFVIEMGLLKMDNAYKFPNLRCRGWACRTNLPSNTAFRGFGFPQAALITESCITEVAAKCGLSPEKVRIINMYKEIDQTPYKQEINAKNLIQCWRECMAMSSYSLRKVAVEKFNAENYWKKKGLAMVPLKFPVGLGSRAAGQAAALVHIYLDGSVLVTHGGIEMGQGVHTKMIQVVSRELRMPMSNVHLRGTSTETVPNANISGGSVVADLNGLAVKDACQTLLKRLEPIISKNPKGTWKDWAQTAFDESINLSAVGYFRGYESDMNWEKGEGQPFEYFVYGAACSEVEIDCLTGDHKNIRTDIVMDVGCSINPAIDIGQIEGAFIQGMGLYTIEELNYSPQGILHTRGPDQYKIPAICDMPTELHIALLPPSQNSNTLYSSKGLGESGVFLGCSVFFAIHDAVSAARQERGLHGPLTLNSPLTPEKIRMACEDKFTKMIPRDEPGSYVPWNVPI

For `CNC(=O)c1ccc2cncc(-c3ccc(-c4cnn(C)c4)cc3)c2n1` [Compound 4], the results for the microsomal CLint at 1 µM in “in vitro [1]” and in “in vitro [3]” were 40 µL/min/mg and 172 µL/min/mg, respectively. Further, the microsomal CLint (as a rule, the rate of metabolic loss divided by the concentration) in the data set “in vitro [2]” is more than 1000 µL/min/mg.
In the case of `CNC(=O)c1ccc2cncc(-c3ccc4c(cnn4C)c3)c2n1` [Compound 5], the microsomal CLint at 1 µM turned out to be 116 µL/min/mg in “in vitro [1]”, 699 µL/min/mg in the data set “in vitro [2]” and 444 µL/min/mg in the data set “in vitro [3]”.
For `CNC(=O)c1ccc2cncc(-c3ccc4cnn(C)c4c3)c2n1` [Compound 6], the microsomal CLint at 1 µM was determined as 32 µL/min/mg in “in vitro [1]”, 178 µL/min/mg in “in vitro [2]” and 333 µL/min/mg in the data set “in vitro [3]”.
As to `Cn1cc(-c2ccc(-c3cncc4ccc(C(N)=O)nc34)cc2)cn1` [Compound 9], the microsomal CLint at 1 µM in “in vitro [1]” came to 34 µL/min/mg; in the data set “in vitro [3]”, 155 µL/min/mg.
Turning to `Cn1cc(-c2ccc(-c3cncc4ccc(C(=O)N5CCC5)nc34)cc2)cn1` [Compound 12], the microsomal CLint at 1 µM in the data set “in vitro [1]” came out at 38 µL/min/mg; in “in vitro [2]” it was 85 µL/min/mg; in the data set “in vitro [3]” it was 143 µL/min/mg.
As for `COC1CN(C(=O)c2ccc3cncc(-c4ccc(-c5cnn(C)c5)cc4)c3n2)C1` [Compound 13], the microsomal CLint at 1 µM in the data set “in vitro [1]” amounted to 35 µL/min/mg; in “in vitro [2]” it was 327 µL/min/mg; in the data set “in vitro [3]”, 95 µL/min/mg. Moreover, on aldehyde oxidase, the “AO substrate (Enzyme assay)” value is listed as “Yes”. Also, the “% of parent compd remaining after 45 min” value on aldehyde oxidase is listed as 0%.
For the molecule `Cn1cc(-c2ccc(-c3cncc4ccc(C(=O)N5CC(F)(F)C5)nc34)cc2)cn1` [Compound 14], the results for the microsomal CLint at 1 µM in “in vitro [1]”, in the data set “in vitro [2]” and in “in vitro [3]” were 111 µL/min/mg, 317 µL/min/mg and 160 µL/min/mg, respectively.
The corresponding values for `Cn1cc(-c2ccc(-c3cncc4ccc(C(=O)N5CCCC5)nc34)cc2)cn1` [Compound 15] are 38 µL/min/mg, 55 µL/min/mg and 321 µL/min/mg.
For `Cn1cc(-c2ccc(-c3cncc4ccc(C(=O)N5CCOCC5)nc34)cc2)cn1` [Compound 16] the same measures were 41 µL/min/mg, 23 µL/min/mg and 83 µL/min/mg.
On to `Cn1cc(-c2ccc(-c3cncc4ccc(N5CCNC5=O)nc34)cc2)cn1` [Compound 20], for which the microsomal CLint at 1 µM stood at 64 µL/min/mg in “in vitro [1]”, 323 µL/min/mg in the data set “in vitro [2]” and 246 µL/min/mg in the data set “in vitro [3]”.
The corresponding values for `Cn1cc(-c2ccc(-c3cncc4ccc(-c5ccnn5C)nc34)cc2)cn1` [Compound 23] are 144 µL/min/mg, 761 µL/min/mg and 310 µL/min/mg.
The corresponding values for `Cn1cc(-c2ccc(-c3cncc4ccc(-c5ccn(C)n5)nc34)cc2)cn1` [Compound 24] are 45 µL/min/mg, 212 µL/min/mg and 299 µL/min/mg.
As to `CNC(=O)c1ccc2cncc(-c3ccc(-c4cnn(C)c4)cc3)c2c1` [Compound 27], the figures for the microsomal CLint at 1 µM in the data set “in vitro [1]” and in “in vitro [3]” were 27 µL/min/mg and 275 µL/min/mg, respectively. Besides, the “% of parent compd remaining after 45 min” value at aldehyde oxidase was 0%.
In the case of `Cn1cc(-c2ccc(-c3cncc4ccc(C(=O)NC5CC5)cc34)cc2)cn1` [Compound 28], the microsomal CLint at 1 µM in the data set “in vitro [1]” was 31 µL/min/mg; in “in vitro [2]” it was 98 µL/min/mg; in the data set “in vitro [3]”, 141 µL/min/mg. The “AO substrate (Enzyme assay)” value on aldehyde oxidase was “Yes”.
On to `COC1CN(C(=O)c2ccc3cncc(-c4ccc(-c5cnn(C)c5)cc4)c3c2)C1` [Compound 29], for which the microsomal CLint at 1 µM in “in vitro [1]” stood at 56 µL/min/mg; in “in vitro [2]”, 337 µL/min/mg; in the data set “in vitro [3]”, 403 µL/min/mg. Further, the “AO substrate (Enzyme assay)” value at aldehyde oxidase is on record as “Yes”. Besides, the “% of parent compd remaining after 45 min” value on aldehyde oxidase was 1%.
Take `Cn1cc(-c2ccc(-c3cncc4ccc(-c5nccn5C)cc34)cc2)cn1` [Compound 33]: the results for the microsomal CLint at 1 µM in “in vitro [1]”, in “in vitro [2]” and in the data set “in vitro [3]” were 398 µL/min/mg, 307 µL/min/mg and 570 µL/min/mg, respectively.
In the case of `Cn1cc(-c2ccc(-c3cnc(N)c4ccc(C(=O)N5CCOCC5)nc34)cc2)cn1` [Compound 50], in the data set with Caco-2, the “Caco-2 ER” value is 9 and the “Caco-2 PappA-B” value is listed as 34.0 × 10^–6 cm/s.
Take `Cn1cc(-c2ccc(-c3cnc(N)c4ccc(C(=O)N5CCC5)nc34)cc2)cn1` [Compound 52]: the figures for the microsomal CLint at 1 µM in “in vitro [1]”, in “in vitro [2]” and in the data set “in vitro [3]” were 24 µL/min/mg, 38 µL/min/mg and 61 µL/min/mg, respectively. Besides, the “Caco-2 ER” value in the data set with Caco-2 worked out at 5.3. In the data set with Caco-2, the “Caco-2 PappA-B” value is recorded as 42.6 × 10^–6 cm/s.
On to `COC1(C)CN(C(=O)c2ccc3c(N)ncc(-c4ccc(-c5cnn(C)c5)cc4)c3n2)C1` [Compound 53], for which the microsomal CLint in “in vitro [1]” and in “in vitro [2]” was 25 µL/min/mg each time. The molecule also returned a microsomal CLint at 1 µM in “in vitro [3]” of 48 µL/min/mg. In addition, the “Caco-2 ER” value with Caco-2 was determined as 5.8. In addition, the “Caco-2 PappA-B” value with Caco-2 was 40.1 × 10^–6 cm/s.
Turning to `Cn1cc(-c2ccc(-c3cnc(N)c4ccc(C(=O)N5CC(F)(F)C5)nc34)cc2)cn1` [Compound 54], the microsomal CLint at 1 µM came out at 25 µL/min/mg in “in vitro [1]”, 19 µL/min/mg in the data set “in vitro [2]” and 107 µL/min/mg in the data set “in vitro [3]”. For the same molecule, the “Caco-2 ER” value in the data set with Caco-2 turned out to be 1.8. In addition, the “Caco-2 PappA-B” value in the data set with Caco-2 is listed as 23.9 × 10^–6 cm/s.
For `Cn1cc(-c2ccc(-c3cnc(N)c4ccc(C(=O)N5CC(C)(F)C5)nc34)cc2)cn1` [Compound 55] the same measures were 20 µL/min/mg, 24 µL/min/mg, 125 µL/min/mg, 3.4 and 27.6 × 10^–6 cm/s.
The corresponding values for `Cn1cc(-c2ccc(-c3cnc(N)c4ccc(C(=O)N5CCCC5)nc34)cc2)cn1` [Compound 56] are 30 µL/min/mg, 63 µL/min/mg, 81 µL/min/mg, 5.0 and 30 × 10^–6 cm/s.
In the case of `Cn1cc(-c2ccc(-c3cnc(N)c4ccc(C(=O)N5CCC5)cc34)cc2)cn1` [Compound 58], the microsomal CLint in the data set “in vitro [1]” was less than 10 µL/min/mg. The values for the intrinsic metabolic clearance (microsomal CLint) at 1 µM in the data set “in vitro [2]” and in “in vitro [3]” were 11 µL/min/mg and 23 µL/min/mg, respectively. Also, the “Caco-2 ER” value in the data set with Caco-2 is given as 5.5. For the same molecule, the “Caco-2 PappA-B” value in the data set on Caco-2 is 27.2 × 10^–6 cm/s.
On to `COC1(C)CN(C(=O)c2ccc3c(N)ncc(-c4ccc(-c5cnn(C)c5)cc4)c3c2)C1` [Compound 60], for which the figures for the microsomal CLint at 1 µM in the data set “in vitro [1]”, in “in vitro [2]” and in “in vitro [3]” were 64 µL/min/mg, 17 µL/min/mg and 26 µL/min/mg, respectively. In the data set with Caco-2, the “Caco-2 ER” value is 7.2. The “Caco-2 PappA-B” value in the data set with Caco-2 is 25.2 × 10^–6 cm/s.
For `Cn1cc(-c2ccc(-c3cnc(N)c4ccc(C(=O)N5CC(F)(F)C5)cc34)cc2)cn1` [Compound 61] the same measures were 123 µL/min/mg, 17 µL/min/mg, 78 µL/min/mg, 3.8 and 39.7 × 10^–6 cm/s.
The corresponding values for `Cn1cc(-c2ccc(-c3cnc(N)c4ccc(C(=O)N5CC(C)(F)C5)cc34)cc2)cn1` [Compound 62] are 76 µL/min/mg, 28 µL/min/mg, 43 µL/min/mg, 3.4 and 25.8 × 10^–6 cm/s.

For the origin of these results see paper PMC4904262 (ACS Medicinal Chemistry Letters, 2016).
